# Where two headings read alike, the source gives them in different places.
# Biological target: TNF-α converting enzyme (TACE) (Homo sapiens, UniProt P78536)
# Assay: TACE inhibition (fluorescent peptidyl substrate)
# Type: biochemical
# Settings: Table 15
# [1] = IC 50 nM (In Vitro Inhibition of TACE)
# [2] = read-out: IC 50 nM (In Vitro Inhibition of TACE)
# Chain of TNF-α converting enzyme (TACE) (P78536 215-824, species assumed): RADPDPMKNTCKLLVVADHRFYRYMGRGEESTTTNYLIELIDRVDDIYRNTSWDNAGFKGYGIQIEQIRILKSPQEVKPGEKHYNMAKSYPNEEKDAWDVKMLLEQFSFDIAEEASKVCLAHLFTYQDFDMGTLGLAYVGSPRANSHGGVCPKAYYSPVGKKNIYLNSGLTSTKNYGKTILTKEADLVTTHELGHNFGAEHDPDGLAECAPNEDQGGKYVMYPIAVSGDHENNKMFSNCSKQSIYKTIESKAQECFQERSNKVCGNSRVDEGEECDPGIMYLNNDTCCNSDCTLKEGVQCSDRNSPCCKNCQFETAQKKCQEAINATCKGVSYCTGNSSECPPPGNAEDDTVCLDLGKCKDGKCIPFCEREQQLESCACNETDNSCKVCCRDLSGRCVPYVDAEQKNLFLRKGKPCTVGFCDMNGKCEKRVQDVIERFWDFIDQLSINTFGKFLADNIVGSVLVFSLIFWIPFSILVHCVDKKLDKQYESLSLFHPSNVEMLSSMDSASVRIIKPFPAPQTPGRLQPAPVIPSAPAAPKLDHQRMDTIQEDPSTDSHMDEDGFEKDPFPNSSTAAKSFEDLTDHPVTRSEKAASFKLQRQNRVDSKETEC
IC50 [1] [nM],SMILES,further results
21.9,"CC#CCOc1ccc(S(=O)(=O)N[C@H](CCCNC(=O)CN2CCOCC2)C(=O)NO)cc1 [Example 376, (2R)-2-({[4-(but-2-ynyloxy)Phenyl]sulfonyl}amino)-N-hydroxy-5-[(2-morpholin-4-ylacetyl)amino]pentanamide]",–
4.96,"CC#CCOc1ccc(S(=O)(=O)N[C@H](CCCCNC(=O)c2sccc2Cl)C(=O)NO)cc1 [Example 352, N-[(5R)-5-({[4-(But-2-ynyloxy)phenyl]sulfonyl}amino)-6-(hydroxyamino)-6-oxohexyl]-3-chlorothiophene-2-carboxamide]",–
11.8,"CC#CCOc1ccc(S(=O)(=O)N[C@@H](C(=O)NO)[C@H](C)O)cc1 [Example 322, (2R,3S)-2-({[4-(But-2-ynyloxy)phenyl]sulfonyl}amino)-N,3-dihydroxybutanamide]",–
24.6,"CC#CCOc1ccc(S(=O)(=O)N[C@H](CCCNS(=O)(=O)c2cn(C)cn2)C(=O)NO)cc1 [Example 375, (2R)-2-({[4-(but-2-ynyloxy)Phenyl]sulfonyl}amino)-N-hydroxy-5-{[(1-methyl-1H-imidazol-4-yl)sulfonyl]amino}pentanamide]",–
18.2,"CC#CCOc1ccc(S(=O)(=O)N[C@H](CCCNC(=O)N(C)c2ccccc2)C(=O)NO)cc1 [Example 374, (2R)-2-({[4-(but-2-ynyloxy)Phenyl]sulfonyl}amino)-N-hydroxy-5-{[(methylanilino)carbonyl]amino}pentanamide]",–
26.5,"CC#CCOc1ccc(S(=O)(=O)N[C@H](CCCNC(=O)CN2CCN(C)CC2)C(=O)NO)cc1 [Example 377, (2R)-2-({[4-(but-2-ynyloxy)Phenyl]sulfonyl}amino)-N-hydroxy-5-{[2-(4-methylpiperazin-1-yl)acetyl]amino}pentanamide]",–
14.7,"CC#CCOc1ccc(S(=O)(=O)N2CSC[C@@H]2C(=O)NO)cc1 [Example 324, (4S)-3-{[4-(But-2-ynyloxy)phenyl]sulfonyl}-N-hydroxy-1,3-thiazolidine-4-carboxamide]",–
5.89,"CC#CCOc1ccc(S(=O)(=O)N[C@H](CCCCNC(=O)C2CCCCC2)C(=O)NO)cc1 [Example 354, N-[(5R)-5-({[4-(But-2-ynyloxy)phenyl]sulfonyl}amino)-6-(hydroxyamino)-6-oxohexyl]cyclohexanecarboxamide]",–
22.8,"CC#CCOc1ccc(S(=O)(=O)N[C@H](CCCNC(=O)CNCc2ccccc2)C(=O)NO)cc1 [Example 378, (2R)-5-{[2-(Benzylamino)acetyl]amino}-2-({[4-(but-2-ynyloxy)phenyl]sulfonyl}amino)-N-hydroxypentanamide]",–
4.7,"CC#CCOc1ccc(S(=O)(=O)N[C@H](CCCC)C(=O)NO)cc1 [Example 312, (2R)-2-({[4-(But-2-ynyloxy)phenyl]sulfonyl}amino)-N-hydroxyhexanamide]",–
11.9,"CC#CCOc1ccc(S(=O)(=O)N2CCCC[C@@H]2C(=O)NO)cc1 [Example 318, (2R)-1-{[4-(But-2-ynyloxy)phenyl]sulfonyl}-N-hydroxypiperidine-2-carboxamide]",–
13.4,"CC#CCOc1ccc(S(=O)(=O)N[C@H](CCc2ccccc2)C(=O)NO)cc1 [Example 305, (2R)-2-({[4-(But-2-ynyloxy)phenyl]sulfonyl}amino)-N-hydroxy-4-phenylbutanamide]",–
5.13,"CC#CCOc1ccc(S(=O)(=O)N[C@H](CCCNC(=O)CCC)C(=O)NO)cc1 [Example 332, (2R)-2-({[4-(But-2-ynyloxy)phenyl]sulfonyl)amino)-5-(butyrylamino)-N-hydroxypentanamide]",–
17.6,"CC#CCOc1ccc(S(=O)(=O)N[C@@H](C(=O)NO)[C@H](C)OCc2ccccc2)cc1 [Example 323, (2R,3S)-3-(Benzyloxy)-2-({[4-(but-2-ynyloxy)phenyl]sulfonyl}amino)-N-hydroxybutanamide]",–
6.5,"CC#CCOc1ccc(S(=O)(=O)N[C@H](Cc2ccc([N+](=O)[O-])cc2)C(=O)NO)cc1 [Example 317, (2R)-2-({[4-(But-2-ynyloxy)phenyl]sulfonyl}amino)-N-hydroxy-3-(4-nitrophenyl)propanamide]",–
6.32,"CC#CCOc1ccc(S(=O)(=O)N[C@H](CCCCNC(=O)c2ccc(OC)cc2)C(=O)NO)cc1 [Example 361, N-[(5R)-5-({[4-(But-2-ynyloxy)phenyl]sulfonyl}amino)-6-(hydroxyamino)-6-oxohexyl]-4-methoxybenzamide]",–
4.88,"CC#CCOc1ccc(S(=O)(=O)N[C@H](CCCNC(=O)c2cccnc2)C(=O)NO)cc1 [Example 341, N-[(4R)-4-({[4-(But-2-ynyloxy)phenyl]sulfonyl}amino)-5-(hydroxyamino)-5-oxopentyl]nicotinamide]",–
9.28,"CC#CCOc1ccc(S(=O)(=O)N[C@H](CCCCNC(=O)c2ccncc2)C(=O)NO)cc1 [Example 359, N-[(5R)-5-({[4-(But-2-ynyloxy)phenyl]sulfonyl}amino)-6-(hydroxyamino)-6-oxohexyl]isonicotinamide]",–
4.6,"CC#CCOc1ccc(S(=O)(=O)N[C@H](CCCNC(=O)CCc2ccccc2)C(=O)NO)cc1 [Example 339, (2R)-2-({[4-(But-2-ynyloxy)phenyl]sulfonyl}amino)-N-hydroxy-5-[(3-phenylpropanoyl)amino]pentanamide]",–
6.9,"CC#CCOc1ccc(S(=O)(=O)N2Cc3ccccc3C[C@@H]2C(=O)NO)cc1 [Example 325, (3R)-2-{[4-(But-2-ynyloxy)phenyl]sulfonyl}-N-hydroxy-1,2,3,4-tetrahydroisoquinoline-3-carboxamide]",–
6.67,"CC#CCOc1ccc(S(=O)(=O)N[C@H](CCCNC(=O)c2ccncc2)C(=O)NO)cc1 [Example 340, N-[(4R)-4-({[4-(But-2-ynyloxy)phenyl]sulfonyl}amino)-5-(hydroxyamino)-5-oxopentyl]isonicotinamide]",–
10.5,"CC#CCOc1ccc(S(=O)(=O)N[C@H](CO)C(=O)NO)cc1 [Example 319, (2R)-2-({[4-(But-2-ynyloxy)phenyl]sulfonyl}amino)-N,3-dihydroxypropanamide]",–
12.4,"CC#CCOc1ccc(S(=O)(=O)N[C@H](CCCCNC(=O)Cc2ccc(Cl)c(Cl)c2)C(=O)NO)cc1 [Example 355, (2R)-2-({[4-(But-2-ynyloxy)phenyl]sulfonyl}amino)-6-{[2-(3,4-dichlorophenyl)acetyl]amino}-N-hydroxyhexanamide]",–
6.3,"CC#CCOc1ccc(S(=O)(=O)N[C@H](CCC)C(=O)NO)cc1 [Example 313, (2R)-2-({[4-(But-2-ynyloxy)phenyl]sulfonyl}amino)-N-hydroxypentanamide]",–

# The remaining lines, values behind:
SMILES,IC50 [1] [nM],further results
CC#CCOc1ccc(S(=O)(=O)NC(CCN)C(=O)NO)cc1 (centres unmarked) [Example 70],–,% Inhibition at 1 uM (In Vitro Inhibition of TACE) (1 uM): 21.1%
CC#CCOc1ccc(S(=O)(=O)N[C@@H](CCCN=C(N)NS(=O)(=O)c2ccc(C)cc2)C(=O)NO)cc1 [Example 65],398 ± 136,–
CC#CCOc1ccc(S(=O)(=O)NC(Cc2c[nH]c3ccccc23)C(=O)NO)cc1 (centres unmarked) [Example 101],–,% Inhibition at 1 uM (In Vitro Inhibition of TACE) (1 uM): 30.2%
"CC#CCOc1ccc(S(=O)(=O)N[C@H](CCCNC(=O)Oc2ccc(OC)cc2)C(=O)NO)cc1 [Example 372, 4-Methoxyphenyl(4R)-4-({[4-(but-2-ynyloxy)phenyl]sulfonyl}amino)-5-(hydroxyamino)-5-oxopentylcarbamate]",–,IC50 [2]: 8.4 nM
CC#CCOc1ccc(S(=O)(=O)NC(C(=O)NO)C(C)OCc2ccccc2)cc1 (centres unmarked) [Example 99],–,% Inhibition at 1 uM (In Vitro Inhibition of TACE) (1 uM): 28.5%
CC#CCOc1ccc(S(=O)(=O)N[C@H](C(=O)NO)[C@@H](C)CC)cc1 [Example 89],–,% Inhibition at 1 uM (In Vitro Inhibition of TACE) (1 uM): 56.8%
CC#CCOc1ccc(S(=O)(=O)NC(C(=O)NO)C(C)O)cc1 (centres unmarked) [Example 100],–,% Inhibition at 1 uM (In Vitro Inhibition of TACE) (1 uM): 15.4%
CC#CCOc1ccc(S(=O)(=O)NC(CSC(C)(C)C)C(=O)NO)cc1 (centres unmarked) [Example 73],–,% Inhibition at 1 uM (In Vitro Inhibition of TACE) (1 uM): 79%; IC50 [2]: 451 ± 31 nM
CC#CCOc1ccc(S(=O)(=O)N[C@H](CC2CCCCC2)C(=O)NO)cc1 [Example 77],6.9 ± 3.3,–
CC#CCOc1ccc(S(=O)(=O)NC(CO)C(=O)NO)cc1 (centres unmarked) [Example 98],–,% Inhibition at 1 uM (In Vitro Inhibition of TACE) (1 uM): 2.5%
CC#CCOc1ccc(S(=O)(=O)NC(CC(=O)O)C(=O)NO)cc1 (centres unmarked) [Example 67],–,% Inhibition at 1 uM (In Vitro Inhibition of TACE) (1 uM): 46.2%
CC#CCOc1ccc(S(=O)(=O)N[C@@H](CC(=O)OC2CCCCC2)C(=O)NO)cc1 [Example 68],885,–
CC#CCOc1ccc(S(=O)(=O)N[C@@H](CC(C)C)C(=O)NO)cc1 [Example 90],462 ± 58,–
CC#CCOc1ccc(S(=O)(=O)N[C@H](C(=O)NO)C2CCCCC2)cc1 [Example 72],550,–
CC#CCOc1ccc(S(=O)(=O)NC(Cc2ccc(O)cc2)C(=O)NO)cc1 (centres unmarked) [Example 102],–,% Inhibition at 1 uM (In Vitro Inhibition of TACE) (1 uM): 27.3%
CC#CCOc1ccc(S(=O)(=O)N[C@H](CCCNC(=N)NS(=O)(=O)c2c(C)cc(OC)c(C)c2C)C(=O)NO)cc1 [Example 295],29.3,–
"CC#CCOc1ccc(S(=O)(=O)N[C@H](CCCNC(=O)c2cc(C)oc2C)C(=O)NO)cc1 [Example 337, N-[(4R)-4-({[4-(But-2-ynyloxy)phenyl]sulfonyl}amino)-5-(hydroxyamino)-5-oxopentyl]-2,5-dimethyl-3-furamide]",–,IC50 [2]: 4.2 nM
CC#CCOc1ccc(S(=O)(=O)N[C@@H](CSCc2ccc(OC)cc2)C(=O)NO)cc1 [Example 74],297 ± 119,–
"CC#CCOc1ccc(S(=O)(=O)N[C@H](CSC(C)(C)C)C(=O)NO)cc1 [Example 299, (2S)-3-(tert-Butylthio)-2-({[4-(but-2-ynyloxy)phenyl]sulfonyl}amino)-N-hydroxypropanamide]",10.4,–
"CC#CCOc1ccc(S(=O)(=O)NC(C)C(=O)NO)cc1 (stereo in doubt) [Example 62B, L-2-(4-but-2-ynyloxy-Benzenesulfonylamino)-N-hydroxy-propionamide]",–,"inhibition at 1 µM (1 uM, read-out: % Inhibition at 1 uM (In Vitro Inhibition of TACE)): 46.2%"
CC#CCOc1ccc(S(=O)(=O)NC(CCCN)C(=O)NO)cc1 (centres unmarked) [Example 76],–,% Inhibition at 1 uM (In Vitro Inhibition of TACE) (1 uM): 29.7%
CC#CCOc1ccc(S(=O)(=O)NC(Cc2ccccc2)C(=O)NO)cc1 (centres unmarked) [Example 94],–,% Inhibition at 1 uM (In Vitro Inhibition of TACE) (1 uM): 38.2%

# Source: patent publication US6716833B2, “Acetylenic α-amino acid-based sulfonamide hydroxamic acid tace inhibitors” (priority 1999, dated 2004)
